For data set [1], the target named is rat NPRB (natriuretic peptide receptor B) (rat) (UniProt P16067). The data set can be described thus: cell-based or functional assay.
For data set [2], the target named is human NPRB (natriuretic peptide receptor B) (human) (UniProt P20594). Put plainly: cell-based or functional assay.
Data set [3] can be described thus: Pharmacokinetics in male Sprague Dawley rats. Type of data set: in vivo. The following applies: rat, sc, mean, single subcutaneous administration of 200 nMol/kg, plasma. As for the experimental part: The pharmacokinetics of the exemplary analogs are evaluated following a single subcutaneous administration of […] to male Sprague Dawley rats. Blood samples are collected over 120 hours, and resulting individual plasma concentrations are used to calculate pharmacokinetic parameters. Peptide plasma (K3 EDTA) concentrations are determined using a qualified LC/MS method that measured the intact mass of the ANP polypeptide. Each peptide and an analog as an internal standard are extracted from 100% specie specified plasma using methanol with 0.1% formic acid. A Thermo Q-Exactive, High Resolution Instrument, and a Thermo Easy Spray PepMap are combined for LC/MS detection.

For a further data set, the target named is T1, rat NPRA (Rattus norvegicus, UniProt P18910).
T1 construct: Full-Length cDNA Cloning and Generation of Cell Lines Overexpressing Natriuretic Peptide Receptors (NPRs); expressed in transfected cells; host or cells: Jump-in T-Rex HEK293 cells, pJTI R4 CMV-TO MCS pA vector, tetracycline induction
T1 sequence (P18910 29-1057): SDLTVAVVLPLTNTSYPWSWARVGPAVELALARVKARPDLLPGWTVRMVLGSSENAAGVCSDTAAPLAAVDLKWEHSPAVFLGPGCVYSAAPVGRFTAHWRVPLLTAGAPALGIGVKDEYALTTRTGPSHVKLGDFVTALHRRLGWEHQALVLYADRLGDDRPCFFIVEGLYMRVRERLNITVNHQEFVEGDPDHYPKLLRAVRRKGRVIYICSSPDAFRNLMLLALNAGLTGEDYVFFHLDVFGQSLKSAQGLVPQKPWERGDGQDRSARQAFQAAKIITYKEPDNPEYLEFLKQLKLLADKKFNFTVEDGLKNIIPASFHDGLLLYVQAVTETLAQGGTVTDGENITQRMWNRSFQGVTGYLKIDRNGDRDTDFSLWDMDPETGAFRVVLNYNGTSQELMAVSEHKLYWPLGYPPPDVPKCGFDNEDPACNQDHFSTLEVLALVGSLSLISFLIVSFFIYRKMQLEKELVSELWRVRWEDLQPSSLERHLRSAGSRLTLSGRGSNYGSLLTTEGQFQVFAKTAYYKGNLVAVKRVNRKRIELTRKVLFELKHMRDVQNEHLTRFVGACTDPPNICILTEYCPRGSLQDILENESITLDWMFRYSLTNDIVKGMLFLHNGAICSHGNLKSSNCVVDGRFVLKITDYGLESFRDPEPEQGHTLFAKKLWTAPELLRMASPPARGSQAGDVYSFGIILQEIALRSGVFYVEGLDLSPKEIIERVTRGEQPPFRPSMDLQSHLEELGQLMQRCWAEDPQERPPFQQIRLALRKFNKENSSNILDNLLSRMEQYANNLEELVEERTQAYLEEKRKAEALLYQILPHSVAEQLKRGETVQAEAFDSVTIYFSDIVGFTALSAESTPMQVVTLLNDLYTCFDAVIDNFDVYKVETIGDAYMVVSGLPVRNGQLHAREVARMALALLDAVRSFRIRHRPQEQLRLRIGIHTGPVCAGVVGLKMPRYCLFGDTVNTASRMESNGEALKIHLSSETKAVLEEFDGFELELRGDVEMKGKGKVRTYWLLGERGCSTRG
The data set can be described thus: Rat NPRA cGMP activity assay (HTRF) in HEK293 cells overexpressing NPRA. Type of data set: cell-based. As to conditions: assay buffer with 0.1% casein, read-out: cGMP Assay (EC50, pM) w/Casein rNPRA. Put shortly: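 Tetracycline-induced (300 ng/mL, 48 h) T-Rex HEK293 cells expressing NPRA, 4000 cells/well, treated 40 min at room temperature with polypeptide (8 points, 10 μM to 1 pM) in HBSS/HEPES buffer with 0.5 mM IBMX, pH 7.4. cGMP by HTRF, normalised to 100 nM amidated rat ANP and buffer.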
(In TR-FRET formats the signal depends on donor and acceptor labels being close together.)

A further data set deals with SAUNA Mouse Model. Put plainly: Salty drinking water/Unilateral Nephrectomy/Aldosterone (SAUNA) mouse model of heart failure. The data set is classed as in vivo, male C57BL/6N mice. As to conditions: SAUNA mice, once daily SC 0.4 mg/kg. The text has this: The effect of Exemplary ANP polypeptides is investigated in the Salty drinking water/Unilateral Nephrectomy/Aldosterone (SAUNA) Mouse Model, murine model of heart failure induced by chronic aldosterone infusion. After acclimation for approximately 2 weeks, heart failure is induced in male C57BL/6N (Taconic) mice by uninephrectomy, continuous d-aldosterone infusion and 1.0% sodium chloride in drinking water for 4 weeks (Tanaka et al., 2016; Valero-Munoz, Li, Wilson, Boldbaatar, et al., 2016; Valero-Munoz, Li, Wilson, Hulsmans, et al., 2016; Yang, Kong, Shuai, Zhang, & Huang, 2020; Yoon et al., 2021). […] The pressure volume (PV) catheter is introduced into the left ventricle via apical stab with a 27G needle. Calibration of the PV catheter is performed according to the manufacturer's instructions. Data are analyzed with LabChart pro software (AD Instruments). After PV loop measurements, mice are sacrificed, and ratio of heart weight to tibia length is used for indicator of hypertrophy.

The target of the next data set is human NPRA (human) (UniProt P16066). The data set can be described thus: cell-based or functional assay.
Sequence of human NPRA (human) (P16066 33-1061): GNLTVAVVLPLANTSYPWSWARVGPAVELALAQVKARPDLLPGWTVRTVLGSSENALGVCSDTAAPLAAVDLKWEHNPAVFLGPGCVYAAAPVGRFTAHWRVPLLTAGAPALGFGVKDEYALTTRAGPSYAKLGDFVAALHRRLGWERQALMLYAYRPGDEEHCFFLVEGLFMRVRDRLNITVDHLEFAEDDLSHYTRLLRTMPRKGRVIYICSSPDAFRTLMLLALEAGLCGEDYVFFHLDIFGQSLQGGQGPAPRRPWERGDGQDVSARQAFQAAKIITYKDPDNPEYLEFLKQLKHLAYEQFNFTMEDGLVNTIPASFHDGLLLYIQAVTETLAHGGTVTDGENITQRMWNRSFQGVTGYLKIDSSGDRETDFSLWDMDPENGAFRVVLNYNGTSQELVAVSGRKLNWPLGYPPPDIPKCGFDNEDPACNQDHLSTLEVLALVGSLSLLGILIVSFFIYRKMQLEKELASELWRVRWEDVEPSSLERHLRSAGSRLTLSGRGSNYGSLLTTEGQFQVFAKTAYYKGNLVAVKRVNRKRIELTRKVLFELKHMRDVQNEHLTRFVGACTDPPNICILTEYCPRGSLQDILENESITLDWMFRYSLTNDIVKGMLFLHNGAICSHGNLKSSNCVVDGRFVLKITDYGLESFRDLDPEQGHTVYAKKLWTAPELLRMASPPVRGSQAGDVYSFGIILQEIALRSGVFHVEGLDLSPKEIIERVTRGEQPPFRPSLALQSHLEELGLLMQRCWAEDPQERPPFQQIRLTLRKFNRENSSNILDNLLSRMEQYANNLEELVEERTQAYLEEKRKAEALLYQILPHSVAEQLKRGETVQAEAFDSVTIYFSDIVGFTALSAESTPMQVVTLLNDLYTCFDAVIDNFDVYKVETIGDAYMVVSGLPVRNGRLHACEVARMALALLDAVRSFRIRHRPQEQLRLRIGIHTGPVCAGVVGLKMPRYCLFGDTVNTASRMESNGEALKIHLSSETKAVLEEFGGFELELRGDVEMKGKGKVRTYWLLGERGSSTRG

Several values for one entry are separate records, joined by “and”; a condition that tells them apart may be missing. Equal values may be shown once.

Sequence of rat NPRB (natriuretic peptide receptor B) (rat) (P16067 17-1047): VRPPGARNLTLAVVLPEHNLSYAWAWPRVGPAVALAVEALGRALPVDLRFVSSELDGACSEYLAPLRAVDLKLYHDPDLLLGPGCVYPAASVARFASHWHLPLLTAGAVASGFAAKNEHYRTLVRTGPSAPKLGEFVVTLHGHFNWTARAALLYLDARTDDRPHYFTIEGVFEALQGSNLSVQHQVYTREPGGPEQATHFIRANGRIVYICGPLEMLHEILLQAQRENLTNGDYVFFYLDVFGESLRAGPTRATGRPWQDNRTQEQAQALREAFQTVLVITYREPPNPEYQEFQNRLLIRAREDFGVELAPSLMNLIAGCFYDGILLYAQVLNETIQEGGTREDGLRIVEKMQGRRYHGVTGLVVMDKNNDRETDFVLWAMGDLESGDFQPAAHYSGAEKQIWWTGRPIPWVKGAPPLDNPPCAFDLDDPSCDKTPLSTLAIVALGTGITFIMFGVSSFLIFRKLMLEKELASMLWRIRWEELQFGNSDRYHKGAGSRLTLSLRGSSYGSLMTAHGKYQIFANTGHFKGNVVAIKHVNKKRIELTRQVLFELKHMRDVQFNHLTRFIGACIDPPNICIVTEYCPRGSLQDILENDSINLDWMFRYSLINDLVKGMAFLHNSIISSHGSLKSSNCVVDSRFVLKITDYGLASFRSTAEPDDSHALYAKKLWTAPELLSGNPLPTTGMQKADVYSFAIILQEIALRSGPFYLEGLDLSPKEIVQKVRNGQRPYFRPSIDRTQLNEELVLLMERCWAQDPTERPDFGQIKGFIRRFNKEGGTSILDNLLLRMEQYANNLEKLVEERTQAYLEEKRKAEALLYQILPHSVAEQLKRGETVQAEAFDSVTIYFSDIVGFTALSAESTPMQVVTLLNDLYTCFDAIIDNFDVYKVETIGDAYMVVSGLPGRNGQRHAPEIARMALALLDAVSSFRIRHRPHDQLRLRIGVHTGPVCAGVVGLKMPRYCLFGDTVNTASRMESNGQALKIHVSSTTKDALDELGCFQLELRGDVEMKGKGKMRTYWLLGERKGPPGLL
Sequence of human NPRB (natriuretic peptide receptor B) (human) (P20594 23-1047): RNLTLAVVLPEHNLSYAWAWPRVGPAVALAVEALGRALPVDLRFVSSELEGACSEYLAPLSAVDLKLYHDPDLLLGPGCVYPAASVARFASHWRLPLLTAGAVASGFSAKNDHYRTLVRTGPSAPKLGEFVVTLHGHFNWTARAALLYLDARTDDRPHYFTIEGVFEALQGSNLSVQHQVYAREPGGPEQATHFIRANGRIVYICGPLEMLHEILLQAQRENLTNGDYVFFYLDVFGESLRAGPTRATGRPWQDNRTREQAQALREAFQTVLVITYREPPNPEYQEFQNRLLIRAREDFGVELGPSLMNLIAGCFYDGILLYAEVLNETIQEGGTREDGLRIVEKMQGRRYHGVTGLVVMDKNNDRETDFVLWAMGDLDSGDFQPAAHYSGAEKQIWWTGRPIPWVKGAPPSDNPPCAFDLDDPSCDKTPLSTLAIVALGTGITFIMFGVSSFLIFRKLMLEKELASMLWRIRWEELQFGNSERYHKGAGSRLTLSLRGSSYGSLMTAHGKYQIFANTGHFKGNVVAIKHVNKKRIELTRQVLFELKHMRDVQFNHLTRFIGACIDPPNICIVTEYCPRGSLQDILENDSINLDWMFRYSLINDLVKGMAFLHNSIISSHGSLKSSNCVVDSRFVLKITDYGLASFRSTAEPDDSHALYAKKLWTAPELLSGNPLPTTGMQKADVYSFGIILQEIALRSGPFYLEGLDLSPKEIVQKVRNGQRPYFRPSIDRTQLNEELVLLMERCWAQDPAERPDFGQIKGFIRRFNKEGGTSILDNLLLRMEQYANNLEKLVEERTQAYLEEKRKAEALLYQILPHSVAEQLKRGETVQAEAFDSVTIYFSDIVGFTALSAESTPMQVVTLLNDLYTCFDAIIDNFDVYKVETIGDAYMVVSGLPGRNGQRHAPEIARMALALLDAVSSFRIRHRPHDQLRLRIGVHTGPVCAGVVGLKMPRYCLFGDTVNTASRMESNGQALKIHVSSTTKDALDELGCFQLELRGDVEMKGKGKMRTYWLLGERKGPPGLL

Regarding “human CNP-22 (from UniProt P23582 105-126) (peptide)”, the cGMP production (HTRF) in HEK293 cells overexpressing NPRB; concentration that defines the 100% response in data set [1] and in data set [2] was 1 µM in each case.
For orientation: CL/F means the apparent clearance, not corrected for the fraction that reaches the circulation. Take `CC[C@H](C)[C@@H]1NC(=O)[C@H](CCCNC(=N)N)NC(=O)[C@H](CC(=O)O)NC(=O)[C@H]([C@@H](C)CC)NC(=O)[C@H](CCCNC(=N)N)NC(=O)CNC(=O)CNC(=O)[C@H](Cc2ccccc2)NC(=O)[C@@H](NC(=O)[C@H](CO)NC(=O)[C@H](CO)NC(=O)[C@H](CCCNC(=N)N)NC(=O)[C@H](CCCNC(=N)N)NC(=O)[C@H](CC(C)C)NC(=O)[C@H](CO)NC(=O)CNC(=O)[C@H](CCCCN)NC(=O)[C@H](CCC(=O)O)NC(=O)[C@H](CCCCN)NC(=O)[C@H](CCC(=O)O)NC(=O)[C@H](CCCCN)NC(=O)[C@H](CCC(=O)O)NC(=O)CC[C@H](NC(=O)CCCCCCCCCCCCCCCCCCC(=O)O)C(=O)O)CSSC[C@@H](C(=O)N[C@@H](CC(N)=O)C(=O)N[C@@H](CO)C(=O)N[C@@H](Cc2ccccc2)C(=O)N[C@@H](CCCNC(=N)N)C(=O)N[C@@H](Cc2ccc(O)cc2)C(N)=O)NC(=O)CNC(=O)[C@H](CC(C)C)NC(=O)CNC(=O)[C@H](CO)NC(=O)[C@H](CCC(N)=O)NC(=O)[C@H](C)NC(=O)CNC1=O` [Example 8]: the CL/F in data set [3] was 0.698 mL/min/kg. For the same compound, the half-life in data set [3] (read-out: t½ (converted)) is 15 h. For the same compound, the EC50 on rat NPRA came to 493 pM. Moreover, the blood pressure result in the data set with SAUNA Mouse Model is recorded as “decrease in blood pressure”. Further, the “left ventricle diastolic pressure” value with SAUNA Mouse Model (PV catheter) is recorded as “reduced left ventricle diastolic pressure”. The “heart weight and tibia length” value in the data set with SAUNA Mouse Model (indicator of hypertrophy) is on record as “decrease”.
Turning to “HOOC-(CH2)18-CO-(γGlu)-EKEKEKG-PEG24-EK-βAla-RSS[…]PSFRHGGP-NH2 (peptide)”, in the data set with human NPRA (human), the cGMP Assay (EC50, pM) w/BSA, hNPRA is 2960 pM and 1270 pM; the cGMP Assay (EC50, pM) w/Casein, hNPRA was 1010 pM and 669 pM.

The values above are taken from US20240174727A1, “LONG-ACTING NATRIURETIC PEPTIDES AND USES THEREOF” (Eli Lilly and Company, priority 2022, published 2024).
